Results published in US11731933B2, “Device and method for the desalination of water by means of thermal deionisation and liquid-phase ion extraction liquid” (ADIONICS, priority 2015, dated 2023).
In brackets after ≈: the same amount, converted by molar mass. Several values for one entry are separate records, joined by “and”; a condition that tells them apart may be missing. Identical values can stand only once. Like-named read-outs stand apart in the source and are kept apart here.

Tests used:
[1] = NaCl extraction from 0.2M NaCl water by ASM/CEM composition, ion chromatography of treated water; details: ASM: 3TFMPhOH; CEM 0.2M; NaCl 0.2M water
Method: To 3 mL of 3-(trifluoromethyl)phenol, was added 217 mg of Dibenzo-18-crown-6 in order to obtain a formulation with 0.2 mole/L of DB18C6. This sealed formulation was then orbitally stirred at 500 rpm overnight after 1 mL of distilled water was added twice to allow water saturation of the whole.
The next morning, an aqueous 0.2 mol/L NaCl solution was prepared from twice distilled water, while the formulation that was stirred overnight was allowed to stand for decantation. A clear decantation of the two colorless phases is obtained in a few minutes. 3 mL of the organic extraction solution is then removed and transferred to a flask containing 3 mL of this salt water containing 0.2 M NaCl, then the flask is sealed and orbitally stirred (usually 500 rpm), for 3 hours and at room temperature. It is verified that droplets of the order of 1-2 mm are present in quantity at the selected stirring speed (400 to 900 rpm).
After stirring for 2 hours, stirring is stopped and the whole is left to stand for decantation for at least 10 minutes until the two phases are completely separated. The upper aqueous phase is then removed and then stirred and diluted for analysis of its salinity by a Metrohm Ion Chromatography Incorporating a suitable cation analysis column and a suitable anion analysis column. Similarly, the initial aqueous solution of 0.2M NaCl is also analyzed by this ion chromatography equipment to determine its relative concentration of sodium and chlorides. […]

[2] = Solubility in water (UV-visible spectrometry); type: physicochemical; details: for solubility: water
Excerpt: The hydrophobicity or solubility of a compound can be measured by standard methods and in particular by UV-visible spectrometry.

[3] = methanol, published complexing constants, cited from earlier work
[4] = NaCl extraction from 0.4M NaCl water by ASM + Calix[4]Est in chloroform (Example 11); details: for NaCl - 20° C. % ext (average) / NaCl - 60° C. % ext (average): average molar extraction; for Mol % Cl- extracted from the water to be treated / Mol % Na+ extracted from the water to be treated: CEM 0.3 Mol/L, ASM 0.3 Mol/L in CHCl3, 0.4 M NaCl; for Δ % ext: difference 20° C. minus 60° C.
Method: The extraction composition is obtained by solubilizing an amount of 4-tert-butyl Calix[4]arene tetraethyl Ester (CAS No. 97600-39-0) and ASM in chloroform CHCl3 to obtain a final concentration after solubilization of the CEM and ASM of 0.3 mol/L for Calix[4]Est and of 0.3 mol/L for ASM, respectively. These sealed formulations were then orbitally stirred at 500 rpm for 2 hours after adding an equivalent volume of twice distilled water to allow water saturation of the entire formulation and control of pH output (pH=7). The extraction composition is then put to stand to settle. All the compositions tested are stable and rapidly decanted (a few minutes at the most).
A 0.4 mol/L NaCl aqueous solution was prepared from twice distilled water.
The organic extraction composition is then slightly heated to promote solubilization of the compounds by hot air gun (temperature of about 50 to 60° C.) for a few seconds (10 to 30 seconds) until a clear solution is obtained.
3 mL of the organic extraction composition is then removed from the lower phase of the settled two-phase mixture and transferred to a vial containing 3 mL of salt water at 0.4 M NaCl and then the flask is sealed and orbitally stirred (at 500 revolutions per minute), for 2 hours at room temperature (RT), that is to say between 20 and 25° C. In the case of extraction at 60° C., magnetic stirring (at 500 revolutions per minute), for 2 hours, is carried out with indirect heating in a metal mold on a heating plate. It is verified that droplets of the order of 1-2 mm are present during these agitations in order to be certain to achieve equilibrium in the NaCl distribution between the two liquid phases at the end of stirring. The appearance of the organic and aqueous phases is clear and colorless or slightly cloudy.
After stirring for 2 hours, stirring is stopped and the solution is put to stand to settle within 10 minutes, at least until the two phases have completely separated off, at the temperature of the test. The upper aqueous phase is then removed and then stirred and diluted for analysis of its salinity by a Metrohm Ion Chromatograph incorporating a suitable cation analysis column and a suitable anion analysis column. Similarly, the initial aqueous solution of NaCl at 0.4M is also analyzed by this ion chromatograph to determine its relative molar concentration in sodium and in chlorides. AN extractions and analyzes were duplicated.

Row | Compound | NaCl - 20° C. % ext (average) [4] | Mol % Cl- extracted from the water to be treated ([4]; 60° C.) | NaCl - 60° C. % ext (average) ([4]; 60° C.) | Mol % Cl- extracted from the water to be treated ([4]; RT) | Mol % Na+ extracted from the water to be treated ([4]; RT) | Δ % ext [4] | further results
1 | 4-tert-Butylcalix[4]arene-O,O′,O″,O′′′- tetraacetic Acid Tetraethyl Ester [Calix[4]Est] |  |  |  |  |  |  | Extraction rate at 23° C., Cl− [1]: 77%; Extraction rate at 23° C., Na+ [1]: 75%; Extraction rate at 23° C., mean NaCl [1]: 76%; Solubility in water [2]: < 1.10^−6 mMole/L; Log K(Na+, MeOH, 25° C.) ([3]; listed as Calix4Est): 5.0-5.7; Log K(Na+, MeOH, 25° C.) [3]: 5.0
2 | OC(c1cccc(C(F)(F)F)c1)c1cccc(C(F)(F)F)c1 |  |  |  |  |  |  | solubility ([2]; read-out: Solubility in water): 70 µM (≈ 22.4 µg/mL)
3 | Nc1cc(C(F)(F)F)cc(C(F)(F)F)c1 [AnilineF*, 3,5-Di(trifluoromethyl)aniline, reference compound] | 2.7% | not detected | 0.0% | 4.3% and 2.9% | 2.0% and 1.8% | 2.7% | 
4 | CCCCCCCCCCCC(=O)Nc1cc(C(F)(F)F)cc(C(F)(F)F)c1 [ASMC11, N-[3,5-bis(trifluoromethyl)phenyl]dodecanamide] | 23.8% | 4.9% and 7.7% | 5.8% | 24.5% and 25.3% | 22.4% and 23.1% | 18.0% | Mol % Na+ extracted from the water to be treated ([4]; 60° C.): 3.4% and 7.1%
5 | CC(O)c1cccc(C(F)(F)C(F)(F)C(F)(F)F)c1 (stereo not drawn) |  |  |  |  |  |  | solubility [2]: 420 µM (≈ 122 µg/mL)
